This is an account of results in PubChem BioAssay (NCI).

Among the test systems are SF-295 CNS; A549 NSCLC; MDA-MB-231 breast; OVCAR-4 ovarian; SN12C renal; SK-MEL-5 melanoma; NCI-H226 lung; SK-MEL-28 melanoma; SR leukemia; MALME-3M melanoma.
Holding throughout (test): DTP human tumour cell line panel, 48 h

Molecules are shown by their SMILES.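 How tested: cells in 96-well plates exposed to compound for 48 hours at five concentrations. GI50: concentration for 50% inhibition of growth. TGI: concentration producing complete growth inhibition.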 Where only a bound is given, the exact number is not on record here.

Broadly, the GI50 is the concentration giving 50% growth inhibition. In general, TGI refers to the concentration giving total growth inhibition. High values mean lower sensitivity of the cells, low ones greater sensitivity of the cells. As to `Cc1nnc2ccnn2c1C`, the GI50 in the assay on SF-295 CNS is above 100 µM; with A549 NSCLC, above 100 µM; with MDA-MB-231 breast, above 100 µM; in the assay on OVCAR-4 ovarian, above 100 µM; with SN12C renal, above 100 µM; with SK-MEL-5 melanoma, 23.8 µM. Further, the GI50 in the assay with NCI-H226 lung and in the assay on SK-MEL-28 melanoma was above 100 µM each time. Also, the TGI in the assay on SF-295 CNS, in the assay on A549 NSCLC, in the assay with MDA-MB-231 breast, in the assay on OVCAR-4 ovarian, in the assay with SN12C renal and in the assay on SK-MEL-5 melanoma was above 100 µM each time. For the same compound, the TGI in the assay on NCI-H226 lung and with SK-MEL-28 melanoma was above 100 µM each time.
For the compound `CCOC(=O)/C(=C/c1ccc(OC)cc1)N(CC)CC`, the TGI in the assay with SF-295 CNS, in the assay with A549 NSCLC, with OVCAR-4 ovarian, with SN12C renal, in the assay on SK-MEL-5 melanoma and in the assay with SR leukemia was above 100 µM throughout. Besides, the TGI in the assay on NCI-H226 lung, with MALME-3M melanoma and with SK-MEL-28 melanoma was above 100 µM throughout.
For the compound `O=C(/C=C/c1c(O)ccc2ccccc12)c1ccc([N+](=O)[O-])cc1`, the TGI in the assay with SF-295 CNS is above 100 µM; with A549 NSCLC, above 100 µM; in the assay with OVCAR-4 ovarian, 36 µM; in the assay on SN12C renal it was 39.7 µM; in the assay on SK-MEL-5 melanoma it was 34.5 µM; with SR leukemia, above 100 µM. The TGI in the assay on NCI-H226 lung was above 100 µM; in the assay on MALME-3M melanoma, 49.7 µM; in the assay on SK-MEL-28 melanoma, above 67.6 µM.
As to `CCOC(=O)C(=[N+]=[N-])C(=O)CN1C(=O)c2ccccc2C1=O`, the TGI with SF-295 CNS, in the assay with A549 NSCLC, with MDA-MB-231 breast, in the assay on OVCAR-4 ovarian, with SN12C renal and in the assay with SK-MEL-5 melanoma was above 100 µM each time. Also, the TGI in the assay on SK-MEL-28 melanoma is above 100 µM.
On to `C[C@@]1(O)CC[C@]2(C)C3CCCC3[C@H]12` (some centres undefined), for which the TGI in the assay with SF-295 CNS, in the assay on A549 NSCLC, in the assay with OVCAR-4 ovarian, in the assay with SN12C renal, in the assay with SK-MEL-5 melanoma and in the assay on SR leukemia was above 100 µM in each case. Also, the TGI with NCI-H226 lung, in the assay on MALME-3M melanoma and in the assay on SK-MEL-28 melanoma was above 100 µM throughout.
Turning to `CN(C)C(=S)/N=c1\ssc(=S)n1C1CCCCC1`, the TGI with SF-295 CNS was above 100 µM; in the assay with A549 NSCLC, above 100 µM; with OVCAR-4 ovarian, above 100 µM; in the assay with SN12C renal it was above 100 µM; in the assay with SK-MEL-5 melanoma, 73.2 µM; with SR leukemia it was 63.1 µM. Also, the TGI is above 100 µM in the assay with NCI-H226 lung, 64.8 µM in the assay on MALME-3M melanoma and above 100 µM in the assay on SK-MEL-28 melanoma.
On to `Cc1[cH-]c(=O)n(-c2ccccc2)n1.[Au+].[Au].c1ccc([PH+](c2ccccc2)c2ccccc2)cc1.c1ccc([PH+](c2ccccc2)c2ccccc2)cc1`, for which the GI50 in the assay with SF-295 CNS was 15.1 µM; with A549 NSCLC it was 46.8 µM; with OVCAR-4 ovarian, 32.2 µM; in the assay on SN12C renal, 37.5 µM; with SK-MEL-5 melanoma, 16.8 µM; in the assay on SR leukemia it was 26.4 µM. The GI50 with NCI-H226 lung was 26.7 µM; with MALME-3M melanoma, 9.61 µM; in the assay on SK-MEL-28 melanoma, 2.52 µM. The TGI is 35.2 µM in the assay on SF-295 CNS; above 100 µM with A549 NSCLC; above 100 µM with OVCAR-4 ovarian; above 100 µM with SN12C renal; 36.2 µM in the assay with SK-MEL-5 melanoma; above 100 µM in the assay on SR leukemia. The TGI in the assay with NCI-H226 lung was found to be 77.8 µM; in the assay on MALME-3M melanoma it was 31.1 µM; with SK-MEL-28 melanoma, 14.9 µM.
Consider `[O-][Cl+3]([O-])([O-])[O-].[O]=[Ru]=[O].c1ccc(-c2ccccn2)nc1.c1ccc(-c2ccccn2)nc1`, for which the GI50 in the assay with SF-295 CNS was 60.2 µM; in the assay on A549 NSCLC, above 100 µM; in the assay with OVCAR-4 ovarian, above 100 µM; in the assay with SN12C renal, 50.9 µM; in the assay with SK-MEL-5 melanoma it was 82.5 µM; in the assay with SR leukemia it was 4.07 µM. The GI50 in the assay on NCI-H226 lung was 56.7 µM; in the assay on MALME-3M melanoma it was above 100 µM; with SK-MEL-28 melanoma, 92.1 µM. The TGI in the assay on SF-295 CNS was above 100 µM; in the assay on A549 NSCLC, above 100 µM; in the assay on OVCAR-4 ovarian it was above 100 µM; in the assay on SN12C renal, above 100 µM; in the assay with SK-MEL-5 melanoma it was above 100 µM; with SR leukemia, 34.7 µM. The TGI in the assay with NCI-H226 lung, with MALME-3M melanoma and with SK-MEL-28 melanoma was above 100 µM each time.
`O=C(O)CSc1n[nH]c(-c2ccccc2O)n1`: the total growth inhibition concentration (TGI) in the assay with SF-295 CNS, in the assay with A549 NSCLC, in the assay with OVCAR-4 ovarian, with SN12C renal, in the assay with SK-MEL-5 melanoma and with SR leukemia was above 100 µM each time. The TGI in the assay with NCI-H226 lung, in the assay on MALME-3M melanoma and in the assay on SK-MEL-28 melanoma was above 100 µM in each case.
